Laboratory results published in US12679878B2, “CRF2 receptor agonists and their use in therapy” (SANOFI, priority 2020, dated 2026).
Starred links: 1 amine or outer side, 2 acyl side, 3 side chain; linkers in the order of their positions; H or OH if unused. Non-standard residues stand in square brackets, D forms with d. Residues, ends and D or L forms follow the SMILES beside them. Groups on a side chain read outwards from the residue. *: point of attachment. C18 diacid = O=C(O)CCCCCCCCCCCCCCCCC(=O)*; γGlu = O=C(O)[C@H](CCC(=O)[*:2])N[*:1]; AEEA = NCCOCCOCC(=O)O; Aib = CC(C)(N)C(=O)O

Molecular target: T1, human CRF2α receptor (Homo sapiens, UniProt Q13324)
T1 construct: expressed in transfected cells; host or cells: TeloHEAC
T1 sequence (Q13324 1-411): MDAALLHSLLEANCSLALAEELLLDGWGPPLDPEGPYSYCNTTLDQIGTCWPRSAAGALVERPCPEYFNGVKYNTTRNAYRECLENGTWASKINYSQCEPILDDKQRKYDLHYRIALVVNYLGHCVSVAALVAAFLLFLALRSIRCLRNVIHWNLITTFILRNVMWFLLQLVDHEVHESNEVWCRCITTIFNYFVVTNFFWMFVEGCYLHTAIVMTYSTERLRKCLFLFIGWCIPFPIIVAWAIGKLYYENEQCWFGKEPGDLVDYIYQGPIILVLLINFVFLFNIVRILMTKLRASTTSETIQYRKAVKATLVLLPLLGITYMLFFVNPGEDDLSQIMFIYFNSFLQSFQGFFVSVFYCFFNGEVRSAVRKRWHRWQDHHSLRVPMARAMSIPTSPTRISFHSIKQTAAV
Test: cAMP agonism at human CRF2 α receptor in TeloHEAC cells (Example 7)
Assay type: cell-based
Conditions: cAMP HTRF, TeloHEAC cells stably expressing human CRF2 α, 0% HSA; read-out: EC50 [nM], 0% HSA
Procedure, shortened: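 Thawed frozen stably transfected cells in HBSS/20 mM HEPES (0% or 0.1% HSA) plus 2 mM IBMX were exposed to compound at 2000 cells/well for 30 min at room temperature. Intracellular cAMP was read by HTRF (665/620 nm ratio) after 1 h lysis; EC50 was derived with 1000 nM urocortin 2 set as 100%.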

EC50	SMILES
2.2 nM	CC[C@H](C)[C@H](N)C(=O)N[C@H](C(=O)N[C@@H](CC(C)C)C(=O)N[C@@H](CO)C(=O)N[C@@H](CC(C)C)C(=O)N[C@@H](CC(=O)O)C(=O)N[C@H](C(=O)N1CCC[C@H]1C(=O)N[C@H](C(=O)N[C@@H](CCCCN)C(=O)N[C@@H](CC(C)C)C(=O)N[C@@H](CCCCNC(=O)COCCOCCNC(=O)COCCOCCNC(=O)CC[C@H](NC(=O)CCCCCCCCCCCCCCCCC(=O)O)C(=O)O)C(=O)N[C@@H](CCC(N)=O)C(=O)N[C@H](C(=O)N[C@@H](CC(C)C)C(=O)N[C@@H](CC(C)C)C(=O)N[C@@H](CCC(=O)O)C(=O)N[C@@H](CCC(N)=O)C(=O)N[C@@H](CCC(=O)O)C(=O)N[C@@H](CCCNC(=N)N)C(=O)N[C@@H](CCC(N)=O)C(=O)N[C@@H](CCCNC(=N)N)C(=O)NC(C)(C)C(=O)N[C@@H](CCC(=O)O)C(=O)N[C@@H](CCCNC(=N)N)C(=O)N[C@@H](CCC(N)=O)C(=O)N[C@@H](CCC(N)=O)C(=O)N[C@@H](C)C(=O)N[C@@H](CCC(=O)O)C(=O)N[C@H](C(=O)N[C@@H](CC(N)=O)C(=O)N[C@H](C(=O)N[C@@H](CCC(N)=O)C(=O)N[C@H](C(=O)N[C@@H](CC(C)C)C(=O)N[C@@H](C)C(=O)N[C@@H](CCC(N)=O)C(=O)N[C@H](C(N)=O)C(C)C)[C@@H](C)CC)C(C)C)[C@@H](C)O)[C@@H](C)CC)[C@@H](C)CC)C(C)C)C(C)C [compound 48] (H-IVLSLDVPIKLK([AEEA-AEEA-γGlu-C18 diacid])QILLEQERQR[Aib]ERQQAETNVQILAQV-NH2; N-terminus assumed)
12.7 nM	CC[C@H](C)[C@H](N)C(=O)N[C@H](C(=O)N[C@@H](CC(C)C)C(=O)N[C@@H](CO)C(=O)N[C@@H](CC(C)C)C(=O)N[C@@H](CC(=O)O)C(=O)N[C@H](C(=O)N1CCC[C@H]1C(=O)N[C@H](C(=O)N[C@@H](CCCCN)C(=O)N[C@@H](CC(C)C)C(=O)N[C@@H](CCCCNC(=O)COCCOCCNC(=O)COCCOCCNC(=O)CC[C@H](NC(=O)CCCCCCCCCCCCCCCCC(=O)O)C(=O)O)C(=O)N[C@@H](CCC(N)=O)C(=O)N[C@H](C(=O)N[C@@H](CC(C)C)C(=O)N[C@@H](CC(C)C)C(=O)N[C@@H](CCC(=O)O)C(=O)N[C@@H](CCC(N)=O)C(=O)N[C@@H](CCC(=O)O)C(=O)N[C@@H](CCCNC(=N)N)C(=O)N[C@@H](CCC(N)=O)C(=O)N[C@@H](CCCNC(=N)N)C(=O)NC(C)(C)C(=O)N[C@@H](CCC(=O)O)C(=O)N[C@@H](CCCNC(=N)N)C(=O)N[C@@H](CCC(N)=O)C(=O)N[C@@H](CCC(N)=O)C(=O)N[C@@H](C)C(=O)N[C@@H](CCC(=O)O)C(=O)N[C@H](C(=O)N[C@@H](CC(N)=O)C(=O)N[C@H](C(=O)N[C@@H](CCCNC(=N)N)C(=O)N[C@H](C(=O)N[C@@H](CC(C)C)C(=O)N[C@@H](CCC(=O)O)C(=O)N[C@@H](CCCNC(=N)N)C(=O)N[C@H](C(N)=O)C(C)C)[C@@H](C)CC)C(C)C)[C@@H](C)O)[C@@H](C)CC)[C@@H](C)CC)C(C)C)C(C)C [compound 49] (H-IVLSLDVPIKLK([AEEA-AEEA-γGlu-C18 diacid])QILLEQERQR[Aib]ERQQAETNVRILERV-NH2; N-terminus assumed)
